The text below walks through data of patent publication US20090082713A1, “METHOD OF ENHANCING IONTOPHORETIC DELIVERY OF A PEPTIDE” (priority 2007, published 2009).

Data set [1] in a line: In vivo delivery of salmon calcitonin using iontophoresis in combination with microporation using titanium needle arrays. The following applies: titanium needle array microporation in combination with iontophoresis; 0.5 minutes after administration; FIG. 1C. Details: species or system hairless rat.
Data set [2] is described as follows: In vivo iontophoretic delivery of salmon calcitonin across skin microporated with maltose microneedles, serum SCT by ELISA. Details: species or system hairless rat. The following applies: for increase in concentration compared to delivery with microneedles alone: p<0.05; for increase in concentration compared to delivery with microneedles alone / Cmax / total amount of SCT delivered: hairless rat; for Cmax: hairless, rat, serum, topical or ocular, 350 µg, read-out: maximum concentration of SCT in the serum; for total amount of SCT delivered: calculated by WinNonlin. The method, then: • Purpose: To determine the effect of iontophoresis and its combination with microneedles on the in vivo delivery of salmon calcitonin (SCT) as a model peptide. • Methods: Microneedles, iontophoresis and the combination were investigated for their effect on the transdermal delivery of SCT in vivo using the hairless rat. SCT (350 μl of a 1 mg/ml solution in 50 mM citrate buffer, pH 4.0) was placed in a cartridge designed for iontophoresis. Maltose microneedles (500 micron, Texmac Inc.), stacked in three layers, were used to porate the skin prior to the application of the drug with or without iontophoresis. […] Transport of drug across the skin was assessed by collecting blood samples at regular intervals via the tail vein which were analyzed for serum SCT using ELISA. • Results: The maximum concentrations of SCT in the serum were 41.45 pg/ml, 605.21 pg/ml, and 2374.06 pg/ml under microneedles alone, 1 hr iontophoresis alone, and the combination, respectively. When compared to the delivery with microneedles alone, the increase in concentration with iontophoresis alone was 15-fold (p<0.05) and with the combination of microneedles the increase was 57-fold (p<0.05). The total amount of SCT delivered by iontophoresis and its combination with microneedles in the hairless rat was 648.67 ng/kg and 3075.96 ng/kg, respectively, as calculated by WinNonlin. • Conclusion: Iontophoresis or a disruption of the skin barrier by microneedles enabled the transdermal delivery of SCT.

Molecules are shown by their SMILES. Read-outs that look alike come from different tables or passages of the source.

Take `CC(C)C[C@H](NC(=O)[C@H](CCCCN)NC(=O)CNC(=O)[C@H](CC(C)C)NC(=O)[C@@H](NC(=O)[C@@H]1CSSC[C@H](N)C(=O)N[C@@H](CO)C(=O)N[C@@H](CC(N)=O)C(=O)N[C@@H](CC(C)C)C(=O)N[C@@H](CO)C(=O)N[C@@H]([C@@H](C)O)C(=O)N1)C(C)C)C(=O)N[C@@H](CO)C(=O)N[C@@H](CCC(N)=O)C(=O)N[C@@H](CCC(=O)O)C(=O)N[C@@H](CC(C)C)C(=O)N[C@@H](Cc1c[nH]cn1)C(=O)N[C@@H](CCCCN)C(=O)N[C@@H](CC(C)C)C(=O)N[C@@H](CCC(N)=O)C(=O)N[C@H](C(=O)N[C@@H](Cc1ccc(O)cc1)C(=O)N1CCC[C@H]1C(=O)N[C@@H](CCCNC(=N)N)C(=O)N[C@H](C(=O)N[C@@H](CC(N)=O)C(=O)N[C@H](C(=O)NCC(=O)N[C@@H](CO)C(=O)NCC(=O)N[C@H](C(=O)N1CCC[C@H]1C(N)=O)[C@@H](C)O)[C@@H](C)O)[C@@H](C)O)[C@@H](C)O` [SCT, salmon calcitonin]: in data set [1], the “plasma concentration of SCT relative to microporation or iontophoresis alone” value is reported as “about 10 fold”. The “increase in concentration compared to delivery with microneedles alone” value in data set [2] (combination of iontophoresis and microneedles vs microneedles alone) came to 57 fold; in data set [2] (iontophoresis alone vs microneedles alone), 15 fold. Also, the Cmax in data set [2] (pH 4, transdermal, 1 hr iontophoresis alone (0.2 mA/cm^2), 350 μl of 1 mg/ml SCT, pH 4.0) worked out at 0.605 ng/mL; in data set [2] (pH 4, transdermal, maltose microneedles alone, 350 μl of 1 mg/ml SCT in 50 mM citrate buffer pH 4.0), 0.0415 ng/mL; in data set [2] (transdermal, combination of maltose microneedles and 1 hr iontophoresis (0.2 mA/cm^2)), 2.37 ng/mL. In addition, the entries for the “total amount of SCT delivered” value in data set [2] (iontophoresis alone) and in data set [2] (iontophoresis in combination with microneedles) were 648.67 ng/kg and 3075.96 ng/kg, respectively. Also, the “increase in amount of protein that permeated the skin compared to iontophoresis alone” value in data set [2] (microneedle treatment combined with iontophoresis vs iontophoresis alone, hairless rat model) is “about four”.
